PMC5247395 (EJNMMI Research, 2017)

What was measured:
PSMA = target: T1, PSMA (Homo sapiens, UniProt Q04609); test: Saturation binding assay on PC-3 PIP cells (PSMA affinity, KD)
T1 construct: expressed in transfected cells; host or cells: PC-3 PIP cells (PSMA-positive subline of human PC-3 prostate cancer cells), provided by Prof; Martin Pomper, Johns Hopkins
Method: Determination of the PSMA affinity was performed by saturation binding assays using PC-3 PIP cells and different concentrations of ^nat/44Sc-, ^nat/177Lu-, ^nat/68Ga-PSMA-617, or ^nat/68Ga-PSMA-11, respectively (Additional file 1).
Determination of the KD values was performed by saturation binding assays using PSMA^pos PC-3 PIP cells. After successful radiolabeling of the PSMA ligands, a 2.5-fold molar excess of the corresponding cold metal was added and the reaction mixture was incubated for another 10 min at 95 °C. Quality control was performed again after reaction of the radioligands with the “cold” metal as described in the main manuscript.
The cells were seeded in 48-well-plates (8 x 10^5 cells in 500 uL RPMI medium/well) allowing adhesion and growth overnight at 37 °C and 5% CO2. For the entire experiment, the well-plates were kept on ice. After removal of the supernatant, the cells were washed once with ice-cold PBS pH 7.4 prior to the addition of different concentrations (1 nM-2 µM) of either ^nat/44Sc-, ^nat/177Lu-, ^nat/67/68Ga-PSMA-617 or ^nat/67/68Ga-PSMA-11 in ice-cold RPMI medium without supplements. For the determination of non-specific binding, cell samples were incubated with 2-phosphonomethyl pentanedioic acid (2-PMPA, 200 μM). The well-plates were incubated for 30 min at 4 °C. Then, the supernatants were removed and the cells washed twice with ice-cold PBS followed by addition of NaOH (1 M, 600 µL) to each well. The cell suspensions were transferred to 4 mL tubes for measurement in a γ-counter (Wallac Wizard 1480, Perkin Elmer). The KD values were determined by plotting specific-binding (total binding minus unspecific binding) against the molar concentration of the added radioligands followed by nonlinear regression analysis using GraphPad Prism 7 software.

[1] = n-octanol/PBS distribution coefficient (shake-flask); assay type: physicochemical; conditions: n-octanol/PBS pH 7.4, shake-flask
Method: The distribution coefficients (logD values) of the radioligands were determined by a shake-flask method using liquid-liquid extraction followed by phase separation, as previously reported (Additional file 1). In brief, the PSMA ligands were labeled at a specific activity of 5 MBq/nmol. […] The vials were vortexed vigorously for 1 min and then centrifuged for 6 min for phase separation. The concentration of radioactivity in a defined volume of each layer was measured in a γ-counter (Perkin Elmer, Wallac Wizard 1480). The distribution coefficients were expressed as the logarithm of the ratio of counts per minute (cpm) measured in the n-octanol phase to the cpm measure in the PBS phase. The values are reported as the average of at least three independent measurements (± standard deviation, SD), each performed with five replicates. Data were analyzed for significance using a one-way ANOVA test (GraphPad Prism software, version 7). A p value of <0.05 was considered as statistically significant.

[2] = system: PC-3 PIP/flu tumor-bearing mice; test: Biodistribution in PC-3 PIP/flu tumor-bearing mice; conditions: i.v.; for PC-3 flu Tumor: PSMA^neg xenograft; for PC-3 PIP Tumor: PSMA^pos xenograft
Method: In vivo experiments were approved by the local veterinarian department and conducted in accordance with the Swiss law of animal protection. All mice were obtained from Charles River Laboratories (Sulzfeld, Germany), at the age of 5–6 weeks. Female, athymic nude Balb/c mice were subcutaneously inoculated with PC-3 PIP cells (6 × 10^6 cells in 100 μL Hank’s balanced salt solution (HBSS) with Ca^2+/Mg^2+) on the right shoulder and with PC-3 flu cells (5 × 10^6 cells in 100 μL HBSS with Ca^2+/Mg^2+) on the left shoulder 2 weeks before the performance of the experiments.
Mice were sacrificed at different time points post injection (p.i.) of the radioligands. Selected tissues and organs were collected, weighed and measured using a γ-counter. The results were decay-corrected and listed as a percentage of the injected activity per gram of tissue mass (% IA/g).

T1 sequence (Q04609 whole entry): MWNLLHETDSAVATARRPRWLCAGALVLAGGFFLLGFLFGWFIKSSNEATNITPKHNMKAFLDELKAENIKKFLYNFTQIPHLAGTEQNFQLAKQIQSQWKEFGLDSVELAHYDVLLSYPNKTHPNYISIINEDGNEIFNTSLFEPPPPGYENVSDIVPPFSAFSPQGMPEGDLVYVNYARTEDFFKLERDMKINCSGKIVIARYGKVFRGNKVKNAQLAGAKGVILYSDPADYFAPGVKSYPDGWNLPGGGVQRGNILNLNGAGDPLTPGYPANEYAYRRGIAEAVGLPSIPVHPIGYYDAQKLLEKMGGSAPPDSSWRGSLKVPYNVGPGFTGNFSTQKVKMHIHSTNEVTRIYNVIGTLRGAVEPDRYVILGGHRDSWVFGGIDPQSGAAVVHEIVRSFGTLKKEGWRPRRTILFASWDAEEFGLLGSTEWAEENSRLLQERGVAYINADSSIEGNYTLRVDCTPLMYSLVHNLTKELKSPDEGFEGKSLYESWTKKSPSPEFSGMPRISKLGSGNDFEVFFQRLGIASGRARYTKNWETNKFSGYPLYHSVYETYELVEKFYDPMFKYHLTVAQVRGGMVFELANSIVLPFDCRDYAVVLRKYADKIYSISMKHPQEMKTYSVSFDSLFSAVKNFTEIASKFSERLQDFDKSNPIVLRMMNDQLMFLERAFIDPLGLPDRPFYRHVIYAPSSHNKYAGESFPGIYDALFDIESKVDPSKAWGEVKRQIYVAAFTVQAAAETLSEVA

## O=C([O-])CN1CCN(CC(=O)[O-])CCN(CC(=O)NCC2CCC(C(=O)NC(Cc3ccc4ccccc4c3)C(=O)NCCCCC(NC(=O)NC(CCC(=O)O)C(=O)O)C(=O)O)CC2)CCN(CC(=O)[O-])CC1.[44Sc+3] (centres unmarked) [^44Sc-PSMA-617]
PSMA; 30 min at 4 °C, saturation binding
  Kd: 33 ± 12 nM
PSMA; inverse molar ratio of average KD values, ^177Lu-PSMA-617 set to 1
  Relative PSMA-binding affinity: 1.2
[1]
  LogD values: −4.21 ± 0.04
[2]; 15 min p.i.
  Blood: 6.76 ± 0.28 % IA/g
  Bone: 2.75 ± 0.73 % IA/g
  Heart: 2.79 ± 0.31 % IA/g
  Intestines: 1.89 ± 0.13 % IA/g
  Kidneys: 37.7 ± 0.82 % IA/g
  Liver: 1.98 ± 0.19 % IA/g
  Lung: 5.24 ± 0.30 % IA/g
  Muscle: 1.37 ± 0.11 % IA/g
  Salivary glands: 2.27 ± 0.22 % IA/g
  Spleen: 3.06 ± 0.18 % IA/g
  Stomach: 2.25 ± 0.16 % IA/g
  PC-3 flu Tumor: 2.14 ± 0.13 % IA/g
  PC-3 PIP Tumor: 36.5 ± 7.44 % IA/g
[2]; 30 min p.i.
  Blood: 2.52 ± 0.43 % IA/g
  Bone: 0.92 ± 0.19 % IA/g
  Heart: 1.31 ± 0.14 % IA/g
  Intestines: 1.05 ± 0.32 % IA/g
  Kidneys: 27.8 ± 3.29 % IA/g
  Liver: 0.80 ± 0.05 % IA/g
  Lung: 2.06 ± 0.25 % IA/g
  Muscle: 1.08 ± 0.20 % IA/g
  Salivary glands: 1.21 ± 0.14 % IA/g
  Spleen: 2.20 ± 0.67 % IA/g
  Stomach: 0.91 ± 0.17 % IA/g
  PC-3 flu Tumor: 1.51 ± 0.18 % IA/g
  PC-3 PIP Tumor: 44.4 ± 7.51 % IA/g
[2]; 2 h p.i.
  Bone: 0.26 ± 0.13 % IA/g
  Heart: 0.36 ± 0.04 % IA/g
  Intestines: 0.15 ± 0.04 % IA/g
  Kidneys: 5.97 ± 0.90 % IA/g
  Liver: 0.22 ± 0.03 % IA/g
  Lung: 0.37 ± 0.01 % IA/g
  Muscle: 0.36 ± 0.11 % IA/g
  Salivary glands: 0.36 ± 0.07 % IA/g
  Spleen: 0.81 ± 0.34 % IA/g
  Stomach: 0.20 ± 0.05 % IA/g
  PC-3 flu Tumor: 0.32 ± 0.16 % IA/g
  PC-3 PIP Tumor: 46.7 ± 4.36 % IA/g
[2]; 4 h p.i.
  PC-3 flu Tumor: 0.40 ± 0.08 % IA/g
  PC-3 PIP Tumor: 51.9 ± 4.05 % IA/g
[2]; 6 h p.i.
  Blood: 0.27 ± 0.02 % IA/g
  Bone: 0.65 ± 0.21 % IA/g
  Heart: 0.63 ± 0.10 % IA/g
  Intestines: 0.13 ± 0.01 % IA/g
  Kidneys: 3.09 ± 0.58 % IA/g
  Liver: 0.31 ± 0.02 % IA/g
  Lung: 0.51 ± 0.06 % IA/g
  Muscle: 0.94 ± 0.08 % IA/g
  Salivary glands: 0.75 ± 0.17 % IA/g
  Spleen: 0.90 ± 0.03 % IA/g
  Stomach: 0.39 ± 0.07 % IA/g
  PC-3 flu Tumor: 0.24 ± 0.02 % IA/g
  PC-3 PIP Tumor: 52.0 ± 8.42 % IA/g
